Data: patent US8669380B2, “Dioxa-bicyclo[3.2.1]octane-2,3,4-triol derivatives” (Pfizer Inc., priority 2009, dated 2014)
Values joined by “and” are separate entries in the source; they are usually repeats but may differ in a detail not shown here. Equal values may be shown once. Read-outs that look alike come from different tables or passages of the source.

Experiments:
[1] = target: human SGLT2 (Homo sapiens (Human), UniProt P31639); assay: SGLT2 functional assay: inhibition of AMG uptake in CHO-FlpIn cells stably expressing human SGLT2; type: cell-based; settings: read-out: hSGLT2 IC50
Excerpt: The SGLT2 functional assay was designed to detect the inhibition of methyl-alpha-D glucopyranoside (AMG—a non-metabolizable form of glucose) uptake via the SGLT2 transporter. The SGLT2 transporter recovers glucose from the proximal tubules of the kidney; its inhibition results in sugar wasted in the urine. The positive control compound, Phlorizin, is a known inhibitor of glucose uptake for SGLT2 and was used for comparing the high percent effect of SGLT2 inhibition of the test compounds.
CHO-FlpIn (Invitrogen, Carlsbad, Calif.) cells stably expressing human SGLT2 (pcDNA5/FRT) were plated in Iso-TC 96 well plates (Perkin Elmer, Waltham, Mass.) at a density of 100,000 cells/well in 100 microL of growth media (1:1 F-12/DMEM media (Gibco, Carlsbad, Calif.), 10% FBS (Sigma, St. Louis Mo.), 1× Pen/Strep (Gibco, Carlsbad, Calif.), 600 microg/mL Hygromycin (Invitrogen, Carlsbad, Calif.)). Prior to treating with test compound, confluent cells were serum starved for 2 hours at 37° C. in 1:1 F-12/DMEM media, replacing with fresh F-12/DMEM media after 1 hour. […] After incubation, cells were washed twice with ice cold wash buffer (uptake buffer containing 200 microM Phlorizin (Sigma), air dried and lysed in 30 microL of 200 mM NaOH and 1% SDS buffer on an orbital shaker. Microscint 40 (Perkin Elmer, Waltham, Mass.) was added to the lysed cells (giving a final volume of 200 microL) and mixed by orbital shaking for 30 minutes. Plates were stored in the dark overnight and quantitated in the 1540 Microbeta Trilux (Wallac, Waltham, Mass.) using a normalized protocol for ^14C detection. The percent effect of test compounds to inhibit AMG uptake was calculated using the following calculation: [% Effect=((ZPE−T)/(ZPE−HPE))×100%] where “ZPE” is the corrected counts per minute (CCPM) in control wells containing 0.5% DMSO, “T” is the CCPM in wells containing test compound at various concentrations of the standard curve, and “HPE” is the high percent effect referring to the CCPM in control wells containing 10 microM Phlorizin. The IC50 values were calculated using a dose response equation and are summarized for the compounds tested in Table 1. **For test compound 1, cells were pre-incubated with test compound 1 for 15 minutes prior to the addition of the appropriate amount of AMG (40 nCi AMG [U-^14C] (Perkin Elmer, Waltham, Mass.) in unlabelled AMG (Aldrich, St. Louis, Mo.)) per well yielding a final concentration of 200 microM AMG. […]

[2] = target: hSGLT1 (Homo sapiens (Human), UniProt P13866); assay: hSGLT1 inhibition (Table 1); type: cell-based; settings: individual runs (Run No.)
[3] = final concentration of 11.33 microM AMG, individual runs (Run No.)

Chain of hSGLT1 (P13866 whole entry): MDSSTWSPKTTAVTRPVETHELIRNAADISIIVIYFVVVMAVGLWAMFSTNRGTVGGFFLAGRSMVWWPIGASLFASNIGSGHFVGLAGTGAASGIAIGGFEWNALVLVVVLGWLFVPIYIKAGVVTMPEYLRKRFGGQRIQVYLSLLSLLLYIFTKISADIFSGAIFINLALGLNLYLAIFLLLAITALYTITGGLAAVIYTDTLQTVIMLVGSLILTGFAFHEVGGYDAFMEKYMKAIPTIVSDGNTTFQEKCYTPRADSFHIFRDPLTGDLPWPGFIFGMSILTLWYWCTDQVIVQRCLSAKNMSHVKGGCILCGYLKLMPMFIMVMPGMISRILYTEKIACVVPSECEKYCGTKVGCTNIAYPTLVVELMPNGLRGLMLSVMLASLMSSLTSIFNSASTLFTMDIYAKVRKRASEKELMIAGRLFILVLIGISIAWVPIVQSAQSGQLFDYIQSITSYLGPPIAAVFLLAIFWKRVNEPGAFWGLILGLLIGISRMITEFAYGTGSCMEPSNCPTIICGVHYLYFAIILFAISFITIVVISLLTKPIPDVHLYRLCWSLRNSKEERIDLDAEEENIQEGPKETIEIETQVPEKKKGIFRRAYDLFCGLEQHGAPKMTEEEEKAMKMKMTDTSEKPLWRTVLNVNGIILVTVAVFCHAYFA
Chain of human SGLT2 (P31639 whole entry): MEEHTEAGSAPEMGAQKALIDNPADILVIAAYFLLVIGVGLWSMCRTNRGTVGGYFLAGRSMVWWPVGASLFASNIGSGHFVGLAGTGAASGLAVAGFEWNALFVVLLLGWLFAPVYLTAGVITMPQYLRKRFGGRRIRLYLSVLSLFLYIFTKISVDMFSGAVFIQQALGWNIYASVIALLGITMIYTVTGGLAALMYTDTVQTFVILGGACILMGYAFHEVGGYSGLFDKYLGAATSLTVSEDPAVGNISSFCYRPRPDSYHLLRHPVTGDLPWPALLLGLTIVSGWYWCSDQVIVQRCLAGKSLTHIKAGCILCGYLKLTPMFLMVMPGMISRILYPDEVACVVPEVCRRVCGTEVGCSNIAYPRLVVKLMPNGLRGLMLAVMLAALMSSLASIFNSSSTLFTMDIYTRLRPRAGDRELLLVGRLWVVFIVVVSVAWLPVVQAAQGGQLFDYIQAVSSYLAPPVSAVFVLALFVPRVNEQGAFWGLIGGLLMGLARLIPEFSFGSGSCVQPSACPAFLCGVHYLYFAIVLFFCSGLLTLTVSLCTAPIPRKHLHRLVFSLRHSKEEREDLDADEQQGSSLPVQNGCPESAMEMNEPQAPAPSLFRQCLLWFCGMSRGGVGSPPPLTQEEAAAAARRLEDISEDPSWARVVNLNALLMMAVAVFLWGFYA

SMILES | IC50 [1, 3] | IC50 [2] | IC50 ([1]; ** final concentration of 200 microM AMG) [nM] | melting point [°C]
CCOc1ccc(Cc2cc([C@]34OC[C@](CF)(O3)[C@@H](O)[C@H](O)[C@H]4O)ccc2Cl)cc1 [Example 8, (1S,2S,3S,4R,5S)-5-[4-Chloro-3-(4-ethoxy-benzyl)-phenyl]-1-fluoromethyl-6,8-dioxa-bicyclo[3.2.1]octane-2,3,4-triol] | 4 nM (2×) and 3 nM | 1970 nM and 1890 nM and 2000 nM | – | –
OC[C@@]12CO[C@@](c3ccc(Cl)c(Cc4ccc(O)cc4)c3)(O1)[C@H](O)[C@@H](O)[C@@H]2O [Example 1, (1S,2S,3S,4R,5S)-5-[4-chloro-3-(4-hydroxy-benzyl)-phenyl]-1-hydroxymethyl-6,8-dioxa-bicyclo[3.2.1]octane-2,3,4-triol] | – | – | 2.6 | –
CCOC(=O)OC[C@@]12CO[C@@](c3ccc(Cl)c(Cc4ccc(OCC)cc4)c3)(O1)[C@H](O)[C@@H](O)[C@@H]2O [Example 4, Carbonic acid (1R,2S,3S,4R,5S)-5-[4-chloro-3-(4-ethoxy-benzyl)-phenyl]-2,3,4-trihydroxy-6,8-dioxa-bicyclo[3.2.1]oct-1-ylmethyl ester ethyl ester] | 45.9 nM | 3360 nM | – | –
CCOc1ccc(Cc2cc([C@]34OC[C@](COC(C)=O)(O3)[C@@H](O)[C@H](O)[C@H]4O)ccc2Cl)cc1 [Example 3, Acetic acid (1R,2S,3S,4R,5S)-5-[4-chloro-3-(4-ethoxy-benzyl)-phenyl]-2,3,4-trihydoxy-6,8-dioxa-bicyclo[3.2.1]oct-1-ylmethyl ester] | – | 3470 nM and 5830 nM | – | –
CCOc1ccc(Cc2cc([C@]34OC[C@](COC(C)=O)(O3)[C@@H](OC(C)=O)[C@H](OC(C)=O)[C@H]4OC(C)=O)ccc2Cl)cc1 [Example 2, Acetic acid (1R,2S,3S,4R,5S)-3,4-diacetoxy-1-acetoxymethyl-5-[4-chloro-3-(4-ethoxy-benzyl)-phenyl]-6,8-dioxa-bicyclo[3.2.1]oct-2-yl ester] | 1090 nM and 1770 nM | 10000 nM | – | 134.3
